Laboratory results taken from patent publication US9834541B2, “2-aminopyridine compounds” (Merck Patent GmbH, priority 2012, dated 2017).

How the values were obtained:
[1] = CLint (intrinsic clearance) assay, liver microsomal incubation; format: in vitro ADME, human; details: liver microsomes, pH 7.4; human hepatic microsomes, 0.5 mg/mL protein, class symbols
Method: Also shown is the human hepatic microsomal intrinsic clearance (CLint), whereby the following classification is used:
2. CLint (Intrinsic Clearance) Assay
A Tecan Genesis workstation (RWS ASY 150/8) was used to perform the microsomal incubations. Analysis was carried out using a Waters ACQUITY UPLC system coupled to an ABSciex API3000 mass spectrometer. Data analysis was performed using Assay Explorer (Symyx).
Column: Acquity UPLC BEH C18, 2.1×50 mm, 1.7 um (Waters)
Mobile phases: • A=0.1% formic acid in water • B=acetonitrile
Column temperature: 50° C.
0.1 M potassium phosphate buffer pH 7.4 containing 1 mM MgCl2
15 mM NADPH in phosphate buffer
5.0 mg protein/mL liver microsomes in phosphate buffer
Each experiment consists of 12 test and 2 reference compounds. The reference compounds are incubated as a cocktail.
Dilution of test compounds was done in 2 steps from a 10 mM DMSO stock solution. First 4 μL stock solution was added to 196 μL of 20% DMSO in potassium phosphate buffer pH 7.4. In a second step 10 μL of the first dilution were added to 1890 μL potassium phosphate buffer and 100 μL internal standard solution to a final concentration of […].
100 μL of the final compound dilution were aliquoted into a 96 deep well plate. 12.5 μL liver microsomes were added to each well (0.5 mg/mL final protein concentration) and the samples preincubated for 5 min at 37° C. and 800 rpm agitation.
After the preincubation, 250 μL cold acetonitrile were added to the 0 min samples to prevent a reaction. Following this, 12.5 μL NADPH solution were added to all wells to start the incubation, with the exception of the 0 min and 30 min controls without cofactor, where the NADPH was substituted for phosphate buffer.
The incubations were stopped after 5, 10, 20 and 30 min by adding 250 μL cold acetonitrile to the individual wells.
The quenched samples were then centrifuged at 4000 g for 1 h at 4° C. 100 μL of the supernatant were transferred into 96 well plates for analysis.
The metabolic stability of each compound was determined by measurement of the change in LC-MS/MS peak area over time. Assay Explorer software was used to automatically calculate the slope k of the decline. The intrinsic clearance (CLint) of each compound was then calculated according to the formula: CLint(μL/min/mg protein)=k1000/protein concentration.

[2] = tested on: Wnt pathway; test: Cellular assay for Wnt pathway activity, LS174T-shl-fLuc clone 5 (LS174T-L5) luciferase reporter assay; format: cell-based; details: Homo sapiens; LS174T TCF luciferase reporter cells, 24 hours incubation
Description: 1. Cellular Assay for Wnt Pathway Activity LS174T-shl-fLuc Clone 5 (LS174T-L5) Reporter Assay Principle:
This assay is based on an in-vitro luciferase activity readout. The human colon cancer cell line, LS174T was transduced with a lentivirus encoding a short half-life luciferase (with a destabilised PEST sequence construct; construct F1756): 16×TCF/LEF transcription sites—short half life firefly luciferase on a basal pTA promoter—puromycin resistance gene on an EF-1-α promoter). This construct was made using the lentiviral base vector: pCDF1-MCS2-EF1-Puro from System Biosciences (cat. # CD110B-1). The luciferase has a T1/2 of about 60 minutes.
Stable luciferase-expressing clones were selected, using 1 μg/mL puromycin selection and the clones were bulked up.
Compounds that inhibit the Wnt pathway are predicted to inhibit the induction of luciferase transcription by TCF; this will result in reduced luciferase protein production and luciferase signal readout.
Compounds were tested for their Wnt pathway inhibitory activities using the described firefly luciferase reporter cell based assay. An LS174T luciferase reporter cell line was used which contained a T-Cell Factor (TCF) dependent gene promoter firefly luciferase construct.
Compounds, in concentrations from 30 μM to 1 nM, were incubated for 24 hours on the cells. Luciferase activities were determined using the Steady Glo Luciferase Assay System (Promega) and the TOPCOUNT microplate reader (Perkin Elmer). For analysis, the obtained data were normalized against the untreated vehicle control and fitted for determination of the IC50 values using the Excel Fit application of the Excel Software (Microsoft).

Compound	microsomal CLint at 0.8 μM [1]	IC50 [2]
Cn1cc(-c2ccc(-c3cnc(N)c(Cl)c3N3CC[C@H](C#N)[C@@H](O)C3)cc2)cn1 (racemic) [Compound 56, rac (3R,4R)-2′-Amino-3′-chloro-3-hydroxy-5′-[4-(1-methyl-1H-pyrazol-4-yl)-phenyl]-3,4,5,6-tetrahydro-2H-[1,4′] bipyridinyl-4-carbonitrile]	10 to 50 µL/min/mg	531 nM
CN1c2ccc(-c3cnc(N)c(Cl)c3N3CC[C@H](C#N)[C@@H](O)C3)cc2CS1(=O)=O (racemic) [Compound 57, Racemic trans-2′-amino-3′-chloro-3-hydroxy-5′-(1-methyl-2,2-dioxo-2,3-dihydro-1H-2l6-benzo[c]isothiazol-5-yl)-3,4,5,6-tetrahydro-2H-[1,4′]bipyridinyl-4-carbonitrile]	10 to 50 µL/min/mg	28.6 nM
Nc1ncc(-c2ccccc2)c(N2CCC3(CCNC3=O)CC2)c1Cl [Compound 1, 8-(2-Amino-3-chloro-5-phenyl-pyridin-4-yl)-2,8-diaza-spiro[4.5]decan-1-one]	10 to 50 µL/min/mg	670 nM
Cn1cc(-c2ccc(-c3cnc(N)c(Cl)c3N3CCC4(CC3)NC(=O)NC4=O)cc2)cn1 [Compound 2, 8-{2-Amino-3-chloro-5-[4-(1-methyl-1H-pyrazol-4-yl)-phenyl]-pyridin-4-yl}-1,3,8-triaza-spiro[4.5] decane-2,4-dione]	< 10 µL/min/mg	31 nM
CN1c2ccc(-c3cnc(N)c(Cl)c3N3CCC4(CC3)CNC(=O)O4)cc2CS1(=O)=O [Compound 4, 8-[2-Amino-3-chloro-5-(1-methyl-2,2-dioxo-2,3-dihydro-1H-2I6-benzo[c]isothiazol-5-yl)-pyridin-4-yl]-1-oxa-3,8-diaza-spiro[4.5] decan-2-one]	< 10 µL/min/mg	38 nM
Nc1ncc(-c2ccc(-c3cnn(CCO)c3)cc2)c(N2CCC3(CC2)NC(=O)NC3=O)c1Cl [Compound 6, 8-(2-Amino-3-chloro-5-{4-[1-(2-hydroxy-ethyl)-1H-pyrazol-4-yl]-phenyl}-pyridin-4-yl)-1,3,8-triaza-spiro[4.5] decane-2,4-dione]	10 to 50 µL/min/mg	390 nM
Nc1ncc(-c2ccc3oc(=O)[nH]c3c2)c(N2CCC3(CC2)CNC(=O)O3)c1Cl [Compound 9, 8-[2-Amino-3-chloro-5-(2-oxo-2,3-dihydro-benzooxazol-5-yl)-pyridin-4-yl]-1-oxa-3,8-diaza-spiro[4.5] decan-2-one]	10 to 50 µL/min/mg	98 nM
Cn1cc(-c2ccc(-c3cnc(N)c(Cl)c3N3CCC4(CC3)CNC(=O)O4)cc2)cn1 [Compound 10, 8-{2-Amino-3-chloro-5-[4-(1-methyl-1H-pyrazol-4-yl)-phenyl]-pyridin-4-yl}-1-oxa-3,8-diaza-spiro[4.5] decan-2-one]	10 to 50 µL/min/mg	36 nM
Cn1cc(-c2ccc(-c3cnc(N)c(Cl)c3N3CCC4(CC3)C(=O)Nc3ccccc34)cc2)cn1 [Compound 11, 1′-(2-Amino-3-chloro-5-(4-(1-methyl-1H-pyrazol-4-yl)phenyl)pyridin-4-yl)spiro[indoline-3,4′-piperidin]-2-one]	10 to 50 µL/min/mg	3 nM
Nc1ncc(-c2ccc3c(N)n[nH]c3c2)c(N2CCC3(CC2)CNC(=O)O3)c1Cl [Compound 37, 8-[2-Amino-5-(3-amino-1H-indazol-6-yl)-3-chloro-pyridin-4-yl]-1-oxa-3,8-diaza-spiro[4.5] decan-2-one]		2300 nM
Nc1ncc(-c2ccc(-c3cnn(CCO)c3)cc2)c(N2CCC3(CC2)NCCNC3=O)c1Cl [Compound 45, 9-(2-Amino-3-chloro-5-{4-[1-(2-hydroxy-ethyl)-1H-pyrazol-4-yl]-phenyl}-pyridin-4-yl)-1,4,9-triaza-spiro[5.5] undecan-5-one]		560 nM
Cn1cc(-c2ccc(-c3cnc(N)c(C(F)(F)F)c3N3CCC(C(N)=O)CC3)cc2)cn1 [Compound 48, 2′-Amino-5′-[4-(1-methyl-1H-pyrazol-4-yl)-phenyl]-3′-trifluoro-methyl-3,4,5,6-tetrahydro-2H-[1,4′] bipyridinyl-4-carboxylic acid amide]		160 nM

Results, then the molecule that gave them:

microsomal CLint at 0.8 μM [1]	IC50 [2]	Compound
< 10 µL/min/mg	120 nM	Nc1ncc(-c2ccc3c(N)n[nH]c3c2)c(N2CCC3(CCNC3=O)CC2)c1Cl [Compound 3, 8-[2-Amino-5-(3-amino-1H-indazol-6-yl)-3-chloro-pyridin-4-yl]-2,8-diaza-spiro[4.5] decan-1-one]
< 10 µL/min/mg	1500 nM	Nc1ncc(-c2ccc3c(N)n[nH]c3c2)c(N2CCC3(CC2)NC(=O)NC3=O)c1Cl [Compound 5, 8-[2-Amino-5-(3-amino-1H-indazol-6-yl)-3-chloro-pyridin-4-yl]-1,3,8-triaza-spiro[4.5] decane-2,4-dione]
10 to 50 µL/min/mg	63 nM	Nc1ncc(-c2ccc3c(c2)NC(=O)C3)c(N2CCC3(CCNC3=O)CC2)c1Cl [Compound 7, 6-(6-Amino-5-chloro-4-(1-oxo-2,8-diazaspiro[4.5]decan-8-yl)pyridin-3-yl)indolin-2-one]
< 10 µL/min/mg	29 nM	Cn1ncc2cc(-c3cnc(N)c(Cl)c3N3CCC4(CC3)NC(=O)NC4=O)ccc21 [Compound 8, 8-[2-Amino-3-chloro-5-(1-methyl-1H-indazol-5-yl)-pyridin-4-yl]-1,3,8-triaza-spiro[4.5] decane-2,4-dione]
10 to 50 µL/min/mg	31 nM	Nc1ncc(-c2ccc3c(N)n[nH]c3c2)c(N2CCC3(CC2)CC(=O)NC3=O)c1Cl [Compound 12, 8-[2-Amino-5-(3-amino-1H-indazol-6-yl)-3-chloro-pyridin-4-yl]-2,8-diaza-spiro[4.5] decane-1,3-dione]
< 10 µL/min/mg	14 nM	Nc1ncc(-c2ccc3c(c2)CCC(=O)N3)c(N2CCC3(CC2)CC(=O)NC3=O)c1Cl [Compound 13, 8-[2-Amino-3-chloro-5-(2-oxo-1,2,3,4-tetrahydro-quinolin-6-yl)-pyridin-4-yl]-2,8-diaza-spiro[4.5] decane-1,3-dione]
10 to 50 µL/min/mg	40 nM	CN1C(=O)CCc2cc(-c3cnc(N)c(Cl)c3N3CCC4(CCNC4=O)CC3)ccc21 [Compound 14, 6-[6-Amino-5-chloro-4-(1-oxo-2,8-diaza-spiro[4.5]dec-8-yl)-pyridin-3-yl]-1-methyl-3,4-dihydro-1H-quinolin-2-one]
	85 nM	Nc1ncc(-c2ccc3[nH]ncc3c2)c(N2CCC3(CCNC3=O)CC2)c1Cl [Compound 35, 8-[2-Amino-3-chloro-5-(1H-indazol-5-yl)-pyridin-4-yl]-2,8-diaza-spiro[4.5] decan-1-one]
	> 300 nM	CN1C(=O)Cc2cc(-c3cnc(N)c(Cl)c3N3CCC4(CC3)CNC(=O)O4)ccc21 [Compound 36, 8-[2-Amino-3-chloro-5-(1-methyl-2-oxo-2,3-dihydro-1H-indol-5-yl)-pyridin-4-yl]-1-oxa-3,8-diaza-spiro[4.5] decan-2-one]
	2 nM	Cn1cc(-c2ccc(-c3cnc(N)c(Cl)c3N3CCC4(CC3)CC(=O)NC4=O)cc2)cn1 [Compound 38, 8-(2-Amino-3-chloro-5-(4-(1-methyl-1H-pyrazol-4-yl)phenyl)pyridin-4-yl)-2,8-diazaspiro[4.5]decane-1,3-dione]
